The source of these data is patent US20060166907A1, “Composition for the treatment of nasopharyngeal carcinoma and method of use thereof” (priority 2002, published 2006).

The subject of series [1] is C15 cells. Conditions: for IC50: read-out: IC 50, NPC cell viability, C15 Cells, 72 h incubation, WST-1, PolyHEMA-coated plates. (In general: Tetrazolium dyes change colour on reduction, which living cells bring about.)
For a further series, the system named is CNE1 NPC cell line. Conditions: CNE1, EBV-negative line; cited from earlier work.
For a further series, the system named is C666-1 cells. The series can be described thus: WST-1 cell viability assay, C666-1 cells. To be noted: for IC50: read-out: IC 50, NPC cell viability, C666-1 Cells. How it is done:
Cell viability assays were performed in 96 well plastic microplates, either uncoated (C666-1) or coated with Poly HEMA (C15). For each cell line, the number of cells distributed per well was optimized in order to achieve the highest metabolic activity while keeping exponential growth till the end of the test. C15 and C666-1 cells were seeded at 10^5 and 35×10^3/well, respectively, in 150 μl culture medium. Following an overnight pre-incubation culture, serial dilutions of chemotherapy drugs (50 μl; final concentration 50 nM-50 μM) were added in quadruplicate to a […]. At the completion of a 72 h incubation with tested pharmacological agents, cell viability was evaluated using the WST-1 assay (Roche Molecular, France). The WST-1 assay is based on the cleavage of the tetrazolium salt by mitochondrial dehydrogenases. […] Cells were incubated with 10 μl of the WST-1 reagent added to the culture medium, for 3 to 6 h, at 37° C. The plates were subsequently read on an ELISA reader (Dynatech MR7000, Guernsey channel Island, USA) using a 490 nm filter. The mean and standard deviation were determined for quadruplicate samples. For each compound, values falling in the linear part of sigmoid curve were included in a linear regression analysis and were used to estimate the 50% inhibitory concentration (IC 50). Measurement of caspase activity in drug treated NPC cells.
(Ali, H. et al., Chemotherapy in advanced nasopharyngeal cancer. Oncology (Huntingt), 14:1223-1230, 2000.) Their short term cytotoxic effect was assessed in vitro on the C15 and C666-1 cells, using a cell viability assay based on WST reduction. Cultured cells were incubated in the presence of various concentrations of each therapeutic agent for 72 hours.

Series [2] concerns C15 cells. The series can be described thus: cells. Conditions: Homo sapiens, 72 h, read-out: IC 50, NPC cell viability, C15 Cells.
For series [3], the system named is C15 cells. Briefly: PARP cleavage Western blot, C15 cells. The class given is cell-based, human. Conditions: doxorubicin 1 μM, Compound A 5 μM, combination at 24 h. How it is done:
FIG. 5. […] Corresponding cell lysates (50 μg protein per lane) were separated by 7.5% SDS-PAGE and analyzed by Western Blot with an anti-PARP monoclonal antibody. The cleaved product of PARP was at 85 kD, as shown in the positive-control extract derived from C15 cells treated with the CD95 agonist-antibody 7C11.

Series [4] deals with C15 cells. Briefly: TRAF1 cleavage Western blot, C15 cells. The class given is cell-based, human. To be noted: 24 h, doxorubicin 1 μM, Compound A 5 μM. How it is done: FIG. 6. Induction of TRAF1-cleavage in C15 cells treated with doxorubicin combined to Compound A. A: Diagram of Fas-mediated TRAF-1-cleavage as reported by Leo et al. (2001). The locations of target peptides used for production of the H-3 monoclonal and H-132 polyclonal antibody are indicated by hatched boxes. The peptide targeted by H-3 was entirely contained in fragment II whereas the peptide targeted by H132 was mainly co-linear with fragment I. B: C15 cells were treated for 24 h with doxorubicin (1 μM), Compound A […] or a combination of both. Control cells were treated with the Fas-agonist antibody 7C11. Cell lysates (50 μg protein per lane) were separated on a 8-16% SDS-PAGE linear gradient prior to Western Blot analysis with anti-TRAF-1 antibodies. Both antibodies detected a main band at 46 kd Additional bands corresponding to fragments of smaller sizes were visible, mainly in samples treated with 7C11 or the combination of doxorubicin and Compound A. In the extracts of cells treated with 7C11, these smaller fragments had apparent molecular weights of 29 kD (H-3) and 24 kD (H-132) which were compatible with the sizes of TRAF1 fragments reported by Leo et al. (2001). Similar results were obtained in three similar experiments.
(In general: A western blot detects proteins with antibodies after separation by electrophoresis.)

The subject of series [5] is C15 cells. Briefly: Nuclear morphology, Hoechst 33342 staining, C15 cells. It is filed as cell-based, human. To be noted: 48 h to 72 h, doxorubicin 1 μM, Compound A 5 μM. From the text:
FIG. 3. […] A: non-treated cells.

Series [6] relates to TWO1 and TWO39 NPC cell lines. To be noted: TWO1 and TWO39, EBV-negative lines; cited from earlier work.
For series [7], the target named is T1, GGTase I from human brain (Homo sapiens, UniProt P49354+P53609).
T1 construct: GGTase I from human brain; purchased ABS reagent; host or cells: human brain (tissue-derived, not recombinant)
Briefly: In vitro GGTase I assay ([3H]-geranylgeranylation of H-Ras CVLL). The class given is biochemical. Conditions: read-out: Enzyme assays IC50 GGTase I. How it is done: (§1) The effect of Compound A and other drugs on FTase activity was assayed in vitro with FTase from human brain cytosol (ABS Reagents, Wilmington, Del.) as target enzyme and recombinant human H-Ras protein containing the wild type CAAX box (Biomol, Plymouth Meeting, Pa.) as a specific substrate. The incubation mixture (25 μl) for [^3H]-farnesylation contained 50 mM Tris-HCl (pH 7.5), 5 mM dithiothreitol, 20 μM ZnCl2, 40 mM MgCl2, 0.6 μM [^3H]-farnesyl pyrophosphate (22.3 Ci/mmol) (NEN, Boston, Mass.), 4 μM recombinant H-Ras and 10 μg FTase. After 60 min at 37° C., the reaction was stopped by adding 150 μl of absolute ethanol. The mixture was then filtered on Unifilter GF/B microplate (Packard, Rungis, France) and washed 6 times with ethanol prior to scintillation counting. After adding 50 μl of Microscint 0, plates were counted with a Packard Top Count scintillation counter. Drug effects on GGTase I activity were assayed by a similar method with GGTase I from human brain (ABS reagent) as target enzyme and human recombinant H-Ras containing a mutated CAAX box (CVLL)(Biomol). The incubation mixture contained 4 μM recombinant H-Ras, 0.6 μM [^3H]-geranylgeranyl-pyrophosphate (19.3 Ci/mmol) (NEN) and 100 μg of GGTase I. GGTI-286 was used as a positive control for the GGTase-I inhibition assay. Results were expressed as the concentrations of drugs required to inhibit 50% of prenyl-incorporation into the recombinant H-Ras proteins (IC50). Assessment of farnesyl-transferase inhibition in intact cells.

Series [8] concerns the target T2, FTase from human brain cytosol (Homo sapiens, UniProt P49354+P49356).
T2 construct: FTase from human brain cytosol; purchased ABS Reagents, Wilmington, Del; host or cells: human brain cytosol (tissue-derived, not recombinant)
Briefly: In vitro FTase assay ([3H]-farnesylation of H-Ras). It is filed as biochemical. Conditions: mean of 2 experiments (lowest-highest); read-out: Enzyme assays IC50 FTase. How it is done: as §1

In series [9] the test system is farnesyl-transferase in intact MIAPaca cells. The series can be described thus: Farnesyl-transferase inhibition in intact cells (H-Ras and N-Ras Western blot). Conditions: 48 h. It is filed as cell-based, human. How it is done:
The effect of Compound A on farnesyl-transferase in intact cells was assayed in MIAPaca cells, a human pancreatic carcinoma cell line which was purchased from the ATCC. Both H-Ras and N-Ras were investigated as reference substrates of the endogenous farnesyl-transferase. Total protein extracts were prepared from MIAPaca cells treated for 48 h with increasing concentrations of Compound A (1-100 nM) along with extracts from untreated cells as a negative control. A positive control was provided by cells treated with mevastatine (30 μM). Mevastatine is an HMG-CoA reductase inhibitor which blocks the synthesis of farnesyl metabolic precursors. Cell extracts were separated by SDS-polyacrylamide gels (15%) and analyzed by Western blot with polyclonal antibodies directed to H-Ras and N-Ras (Santa Cruz, Heidelberg, Germany). Farnesyl-transferase inhibition was assessed indirectly by detection of non-prenylated forms of H-Ras and N-Ras which were slightly shifted toward higher molecular weights and reacted more efficiently with antibodies. Assessment of drug effect on NPC cell viability.

Setting [10] is: mean of 2 experiments (lowest-highest).

Like-named read-outs stand apart in the source and are kept apart here. Bounds are passed on as bounds.

For `N.N.[Cl][Pt][Cl]` [Cis-platinum, cis-platin], in the series on C15 cells [1], the “enhancement of cytotoxicity by combination with Compound A” value is reported as “not observed” and the IC50 stood at 1000 nM. The “concentration inducing growth arrest” value with CNE1 NPC cell line is on record as “about 1 μM”. Besides, the IC50 with C666-1 cells (72 h incubation, WST-1) was found to be 5000 nM.

For the molecule `COc1cccc2c1C(=O)c1c(O)c3c(c(O)c1C2=O)C[C@@](O)(C(=O)CO)C[C@@H]3O[C@H]1C[C@H](N)[C@H](O)[C@H](C)O1` [Doxorubicin, doxorubicin], the IC50 with C15 cells [2] amounted to 150 nM; in the series with C666-1 cells (Homo sapiens, C6661, 72 h) it was 200 nM. The PARP cleavage result with C15 cells [3] is “Moderate PARP cleavage”. The TRAF1 cleavage result in the series on C15 cells [4] is reported as “no modifications”. Also, the “nuclear apoptosis morphological changes” value in the series on C15 cells [5] was “much less apparent”.

For the molecule `CC(=O)O[C@H]1C(=O)[C@@]2(C)[C@H]([C@H](OC(=O)c3ccccc3)[C@]3(O)C[C@H](OC(=O)[C@H](O)[C@@H](NC(=O)c4ccccc4)c4ccccc4)C(C)=C1C3(C)C)[C@]1(OC(C)=O)CO[C@@H]1C[C@@H]2O` [Taxol], the “effect on NPC cell lines” value in series [6] was “induce growth arrest and/or apoptosis”. Further, the IC50 in the series on C15 cells [2] was at least 25000 nM; in the series on C666-1 cells (Homo sapiens, C6661, 72 h), 200 nM. The “sensitivity to short term cytotoxic effect” value with C15 cells [1] was “totally resistant”; with C666-1 cells, “highly sensitive”.

Take `CC[C@H](C)[C@@H](CN1CSC(C)(C)[C@H]1C(=O)N[C@@H](CCSC)C(=O)OC)NC[C@@H](N)CS` [BIM-46068]: the IC50 amounted to 268000 nM in [7] (setting [10]) and 91 nM in series [8].

Regarding `O=c1[nH]cc(F)c(=O)[nH]1` [5-fluorouracyl], the “sensitivity to short term cytotoxic effect” value in the series on C15 cells [1] and in the series on C666-1 cells was “No significant effects” each time. The IC50 in the series with C15 cells [1] was at least 5000 nM; in the series with C666-1 cells (72 h incubation, WST-1) it was at least 5000 nM.

For `COc1cc(Cn2cncc2CC(=O)N2Cc3nc(-c4ccccc4Br)cn3Cc3c(F)cccc32)ccc1C#N` [Compound A], in [9], the “concentration giving significant inhibition of H-Ras and N-Ras farnesylation” value was determined as 50 nM. Besides, the IC50 in the series with C15 cells [2] is 10000 nM; in series [7] it was over 100000 nM; in [8], 15 nM; in the series with C666-1 cells (Homo sapiens, C6661, 72 h), 10000 nM. Also, in the series on C15 cells [3], the PARP cleavage result is “Moderate PARP cleavage”. The TRAF1 cleavage result in the series on C15 cells [4] is “no modifications”. Moreover, the “nuclear apoptosis morphological changes” value in the series on C15 cells [5] is reported as “much less apparent”.

On to `COC(=O)[C@H](CC(C)C)NC(=O)c1ccc(NC[C@@H](N)CS)cc1-c1ccccc1` [GGTI-286], for which the IC50 in series [7] (setting [10]) is 114 nM; in series [8], 365 nM.

For `COC(=O)[C@H](CCSC)NC(=O)c1ccc(NC[C@@H](N)CS)cc1-c1ccccc1` [FTI-277], the IC50 in series [7] (setting [10]) worked out at 314 nM; in series [8], 30 nM.
